Source: patent US11318137B2, “Quinazoline compounds as modulators of Ras signaling” (VANDERBILT UNIVERSITY, priority 2017, dated 2022)

Molecular target: T1, SOS-mediated nucleotide exchange on Ras (Homo sapiens, UniProt Q07889)
T1 sequence (Q07889 1-1333): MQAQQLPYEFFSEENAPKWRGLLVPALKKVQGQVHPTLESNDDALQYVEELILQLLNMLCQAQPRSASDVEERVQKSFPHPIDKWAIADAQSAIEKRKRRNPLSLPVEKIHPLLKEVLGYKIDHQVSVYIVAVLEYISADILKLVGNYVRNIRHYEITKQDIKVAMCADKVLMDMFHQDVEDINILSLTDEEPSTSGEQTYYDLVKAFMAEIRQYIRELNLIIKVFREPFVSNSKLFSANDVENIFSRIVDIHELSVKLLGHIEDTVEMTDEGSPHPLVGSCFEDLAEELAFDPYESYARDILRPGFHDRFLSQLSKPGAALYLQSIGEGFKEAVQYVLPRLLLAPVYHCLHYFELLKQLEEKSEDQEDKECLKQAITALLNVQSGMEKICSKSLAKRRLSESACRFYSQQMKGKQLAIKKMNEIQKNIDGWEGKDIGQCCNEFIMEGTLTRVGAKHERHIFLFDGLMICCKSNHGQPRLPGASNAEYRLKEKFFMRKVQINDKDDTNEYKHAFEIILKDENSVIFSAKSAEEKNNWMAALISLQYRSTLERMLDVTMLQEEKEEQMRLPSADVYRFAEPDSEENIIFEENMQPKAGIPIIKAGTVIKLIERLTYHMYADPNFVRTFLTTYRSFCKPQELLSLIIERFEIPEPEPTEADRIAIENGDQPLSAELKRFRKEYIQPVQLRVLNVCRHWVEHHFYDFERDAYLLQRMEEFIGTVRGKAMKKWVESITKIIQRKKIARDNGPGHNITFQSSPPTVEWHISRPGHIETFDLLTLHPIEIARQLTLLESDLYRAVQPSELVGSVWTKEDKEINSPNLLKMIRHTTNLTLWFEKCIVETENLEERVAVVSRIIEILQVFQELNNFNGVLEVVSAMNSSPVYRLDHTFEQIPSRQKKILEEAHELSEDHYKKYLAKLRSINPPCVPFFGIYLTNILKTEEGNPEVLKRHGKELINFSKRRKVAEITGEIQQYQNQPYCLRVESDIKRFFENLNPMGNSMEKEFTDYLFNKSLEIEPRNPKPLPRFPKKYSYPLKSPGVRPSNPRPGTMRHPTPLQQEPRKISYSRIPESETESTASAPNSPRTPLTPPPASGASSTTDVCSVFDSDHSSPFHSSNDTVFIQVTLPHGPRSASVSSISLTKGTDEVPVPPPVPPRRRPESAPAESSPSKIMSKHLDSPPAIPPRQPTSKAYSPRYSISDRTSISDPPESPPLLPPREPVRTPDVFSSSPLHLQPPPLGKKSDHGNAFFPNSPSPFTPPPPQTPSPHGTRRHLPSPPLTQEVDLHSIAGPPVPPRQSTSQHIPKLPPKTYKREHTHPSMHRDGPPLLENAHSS
Assay: SOS-mediated nucleotide exchange on Ras (BODIPY-GDP fluorescence)
Format: biochemical
Details: Ras loaded with BODIPY-GDP, GTP and SOS added; EC50 from derived exchange rates
Procedure: A. SOS-Mediated Nucleotide Exchange on Ras
Compounds of the present invention were tested for their ability to modify the rate at which Ras exchanges a labeled nucleotide guanosine diphosphate (GDP) analog for guanosine triphosphate (GTP). Briefly, test compounds, then GTP and the Ras GEF SOS (Son of Sevenless) are added to a buffered solution containing Ras protein loaded with BODIPY-GDP. Changes in fluorescence indicating exchange of the labeled GDP for GTP are monitored over time. Raw fluorescence data was fit to a single exponential decay function and derived rates were plotted as mean values. EC50 values were calculated by plotting mean derived rates as a function of compound concentration and fit using a four-parameter dose-response curve. Full assay details are disclosed in: Burns, M. C.; Sun, Q.; Daniels, R. N.; Camper, D. V.; Kennedy, J. P.; Phan, J.; Olejniczak, E. O.; Lee, T.; Waterson, A. G.; Rossanese, O. W.; Fesik, S. W. “Approach for targeting Ras with small molecules that activate SOS-mediated nucleotide exchange” Proc. Natl. Acad. Sci. 2014; 11(9): 3401-3406. PMCID: PMC3948241.

Compound	EC50
C[C@@H](Nc1nc(Nc2cc(F)c(F)c(F)c2)nc2ccccc12)C1CC1 [Example 6, (R)—N^4-(1-cyclopropylethyl)-N^2-(3,4,5-trifluorophenyl)quinazoline-2,4-diamine]	5 to 30 µM
FC(F)(F)Oc1cccc(Nc2nc(NCc3cccs3)c3ccccc3n2)c1 [Example 7, N^4-(thiophen-2-ylmethyl)-N^2-(3-(trifluoromethoxy)phenyl)quinazoline-2,4-diamine]	5 to 30 µM
FC(F)(F)c1cccc(Nc2nc(NCc3ccco3)c3ccccc3n2)c1 [Example 8, N^44-(furan-2-ylmethyl)-N^2-(3-(trifluoromethyl)phenyl)quinazoline-2,4-diamine]	5 to 30 µM
c1coc(CNc2nc(Nc3ccc4c(c3)CCC4)nc3ccccc23)c1 [Example 10, N^2-(2,3-dihydro-1H-inden-5-yl)-N^4-(furan-2-ylmethyl)quinazoline-2,4-diamine]	5 to 30 µM
c1coc(CNc2nc(Nc3ccc4[nH]nnc4c3)nc3ccccc23)c1 [Example 11, N^2-(1H-benzo [d][1,2,3]triazol-5-yl)-N^4-(furan-2-ylmethyl)quinazoline-2,4-diamine]	> 30 µM
COc1cccc(CNc2nc(NCc3ccco3)c3ccccc3n2)c1 [Example 12, N^4-(furan-2-ylmethyl)-N^2-(3-methoxybenzyl)quinazoline-2,4-diamine]	5 to 30 µM
Oc1cccc(Nc2nc(NCc3cccs3)c3ccccc3n2)c1 [Example 13, 3-((4-((thiophen-2-ylmethyl)amino)quinazolin-2-yl)amino)phenol]	5 to 30 µM
Cc1ccc(CNc2nc(Nc3ccc(F)c(Cl)c3)nc3ccccc23)o1 [Example 15, N^2-(3-chloro-4-fluorophenyl)-N^4-((5-methylfuran-2-yl)methyl)quinazoline-2,4-diamine]	5 to 30 µM
CCC(C)CNc1nc(Nc2ccc(F)c(Cl)c2)nc2ccccc12 (stereo not shown) [Example 16, N^2-(3-chloro-4-fluorophenyl)-N^4-(2-methylbutyl)quinazoline-2,4-diamine]	5 to 30 µM
c1ccc2c(NCC3CC3)nc(NCC3CCC3)nc2c1 [Example 17, N^2-(cyclobutylmethyl)-N^4-(cyclopropylmethyl)quinazoline-2,4-diamine]	5 to 30 µM
c1ccc2c(NCC3CC3)nc(NCC3CCCO3)nc2c1 (stereo not shown) [Example 18, N^4-(cyclopropylmethyl)-N^2-((THF-2-yl)methyl)quinazoline-2,4-diamine]	> 30 µM
CC(C)[C@@H](C)Nc1nc(Nc2cc(F)cc(F)c2)nc2ccccc12 [Example 20, (R)—N^2-(3,5-difluorophenyl)-N^4-(3-methylbutan-2-yl)quinazoline-2,4-diamine]	5 to 30 µM
C[C@@H](Nc1nc(NCc2cccc(Cl)c2F)nc2ccccc12)C1CC1 [Example 25, (R)—N^2-(3-chloro-2-fluorobenzyl)-N^4-(1-cyclopropylethyl)quinazoline-2,4-diamine]	1 to 5 µM
Cc1cccc(CNc2nc(N[C@H](C)C3CC3)c3ccccc3n2)c1F [Example 26, (R)—N^4-(1-cyclopropylethyl)-N^2-(2-fluoro-3-methylbenzyl)quinazoline-2,4-diamine]	1 to 5 µM

Results, then the molecule that gave them:

EC50	Compound
5 to 30 µM	C[C@@H](Nc1nc(NCc2cccc(C(F)(F)F)c2)nc2ccccc12)C1CC1 [Example 28, (R)—N^4-(1-cyclopropylethyl)-N^2-(3-(trifluoromethyl)benzyl)quinazoline-2,4-diamine]
5 to 30 µM	C[C@@H](Nc1nc(NCc2ccccc2F)nc2ccccc12)C1CC1 [Example 29, (R)—N^4-(1-cyclopropylethyl)-N^2-(2-fluorobenzyl)quinazoline-2,4-diamine]
5 to 30 µM	C[C@@H](Nc1nc(Nc2ccc(F)c(Cl)c2F)nc2ccccc12)C1CC1 [Example 30]
1 to 5 µM	CCC(CC)CNc1nc(Nc2ccc(F)c(Cl)c2)nc2ccccc12 [Example 31, N^2-(3-chloro-4-fluorophenyl)-N^4-(2-ethylbutyl)quinazoline-2,4-diamine]
5 to 30 µM	c1ccc(CNc2nc(Nc3ccccc3)nc3ccccc23)cc1 [Example 33, N^4-benzyl-N^2-phenylquinazoline-2,4-diamine]
1 to 5 µM	C[C@@H](Nc1nc(Nc2cc(F)cc(F)c2)nc2ccccc12)C(C)(C)C [Example 41, (R)—N^2-(3,5-difluorophenyl)-N^4-(3,3-dimethylbutan-2-yl)quinazoline-2,4-diamine]
1 to 5 µM	C[C@@H](Nc1nc(Nc2ccc(F)c(Cl)c2)nc2ccccc12)C1CCCC1 [Example 43, (R)—N^2-(3-chloro-4-fluorophenyl)-N^4-(1-cyclopentylethyl)quinazoline-2,4-diamine]
> 30 µM	CC[C@@H](Nc1nc(Nc2ccc(F)c(Cl)c2)nc2ccccc12)C1CCCC1 [Example 44, (R)—N^2-(3-chloro-4-fluorophenyl)-N^4-(1-cyclopentylpropyl)quinazoline-2,4-diamine]
> 30 µM	Fc1ccc(Nc2nc(N[C@@H](C3CC3)C(F)(F)F)c3ccccc3n2)cc1Cl [Example 45, (S)—N^2-(3-chloro-4-fluorophenyl)-N^4-(1-cyclopropyl-2,2,2-trifluoroethyl)quinazoline-2,4-diamine]
> 30 µM	C[C@@H](Nc1nc(Nc2ccc(F)c(Cl)c2)nc2c(Br)cccc12)C1CC1 [Example 46, (R)-8-bromo-N^2-(3-chloro-4-fluorophenyl)-N-(1-cyclopropylethyl)quinazoline-2,4-diamine]
1 to 5 µM	C[C@@H](Nc1nc(Nc2ccc(F)c(Cl)c2)nc2c(C3CNC3)cccc12)C1CC1 [Example 61, (R)-8-(azetidin-3-yl)-N^2-(3-chloro-4-fluorophenyl)-N^4-(1-cyclopropylethyl)quinazoline-2,4-diamine]
5 to 30 µM	C[C@@H](Nc1nc(Nc2ccc(F)c(Cl)c2)nc2c(C3=CCNCC3)cccc12)C(C)(C)C [Example 79, (R)—N^2-(3-chloro-4-fluorophenyl)-N^4-(3,3-dimethylbutan-2-yl)-8-(1,2,3,6-tetrahydropyridin-4-yl)quinazoline-2,4-diamine]
1 to 5 µM	Cc1cc(F)cc(Nc2nc(N[C@H](C)C(C)(C)C)c3cccc(C4=CCNCC4)c3n2)c1 [Example 80, (R)—N^4-(3,3-dimethylbutan-2-yl)-N^2-(3-fluoro-5-methylphenyl)-8-(1,2,3,6-tetrahydropyridin-4-yl)quinazoline-2,4-diamine]
1 to 5 µM	Cc1cc(F)cc(Nc2nc(N[C@H](C)C(C)(C)C)c3cccc(CCN)c3n2)c1 [Example 83, (R)-8-(2-aminoethyl)-N^4-(3,3-dimethylbutan-2-yl)-N^2-(3-fluoro-5-methylphenyl)quinazoline-2,4-diamine]
1 to 5 µM	C[C@@H](Nc1nc(Nc2ccc(F)c(Cl)c2)nc2c(C3=CCNCC3)cccc12)c1cccs1 [Example 88, (R)—N^2-(3-chloro-4-fluorophenyl)-8-(1,2,3,6-tetrahydropyridin-4-yl)-N^4-(1-(thiophen-2-yl)ethyl)quinazoline-2,4-diamine]
1 to 5 µM	C[C@@H](Nc1nc(NCC2CCCCC2)nc2c(CN)cccc12)c1cccs1 [Example 96, (R)-8-(aminomethyl)-N^2-(cyclohexylmethyl)-N^4-(1-(thiophen-2-yl)ethyl)quinazoline-2,4-diamine]
1 to 5 µM	CCC(CC)CNc1nc(Nc2ccc(F)c(Cl)c2)nc2c(C#N)cccc12 [Example 99, 2-((3-chloro-4-fluorophenyl)amino)-4-((2-ethylbutyl)amino)quinazoline-8-carbonitrile]
